Laboratory results: US7820623B2 (priority 2006, dated 2010)
Where two headings read alike, the source gives them in different places. Bridge positions count the residues as written; N and C are the ends. Square brackets hold non-standard residues; d marks the D form. Peptide text beside a SMILES is read from it. 1Nal = N[C@@H](Cc1cccc2ccccc12)C(=O)O

B1: FcLoop-G2-OSK-G2 (protein)
chain: MDKTHTCPPCPAPELLGGPSVFLFPPKPKDTLMISRTPEVTCVVVDVSHEDPEVKFNWYVDGVEVHNAKTKPREEQYNSTYRVVSVLTVLHQDWLNGKEYKCKVSNKALPAPIEKTISKAKGQPREPQVYTLPPSRDELGGGVIINVKCKISRQCLEPCKKAGMRFGKCMNGKCHCTPKGGTKNQVSLTCLVKGFYPSDIAVEWESNGQPENNYKTTPPVLDSDGSFFLYSKLTVDKSRWQQGNVFSCSVMHEALHNHYTQKSLSLSPGK
B2: FcLoop-G4-OSK-G2 (protein)
chain: MDKTHTCPPCPAPELLGGPSVFLFPPKPKDTLMISRTPEVTCVVVDVSHEDPEVKFNWYVDGVEVHNAKTKPREEQYNSTYRVVSVLTVLHQDWLNGKEYKCKVSNKALPAPIEKTISKAKGQPREPQVYTLPPSRDELGGGGGVIINVKCKISRQCLEPCKKAGMRFGKCMNGKCHCTPKGGTKNQVSLTCLVKGFYPSDIAVEWESNGQPENNYKTTPPVLDSDGSFFLYSKLTVDKSRWQQGNVFSCSVMHEALHNHYTQKSLSLSPGK
B3: FcLoop-G2-ShK-G2 (protein)
chain: MDKTHTCPPCPAPELLGGPSVFLFPPKPKDTLMISRTPEVTCVVVDVSHEDPEVKFNWYVDGVEVHNAKTKPREEQYNSTYRVVSVLTVLHQDWLNGKEYKCKVSNKALPAPIEKTISKAKGQPREPQVYTLPPSRDELGGRSCIDTIPKSRCTAFQCKHSMKYRLSFCRKTCGTCGGTKNQVSLTCLVKGFYPSDIAVEWESNGQPENNYKTTPPVLDSDGSFFLYSKLTVDKSRWQQGNVFSCSVMHEALHNHYTQKSLSLSPGK
B4: 20k PEG-L2-6H-L3-CH2-L10-OsK1(1-38) (conjugate)
chain: MGGHHHHHHGGGPSVFLFPPKPKDTLMISRTPEVTCVVVDVSHEDPEVKFNWYVDGVEVHNAKTKPREEQYNSTYRVVSVLTVLHQDWLNGKEYKCKVSNKALPAPIEKTISGGGGSGGGGSGVIINVKCKISRQCLEPCKKAGMRFGKCMNGKCHCTPK

Key:
[1] = tested on: thapsigargin-induced IFN-g production in human whole blood; assay type: cell-based
[2] = tested on: thapsigargin-induced IL-2 production in human whole blood
[3] = read-out: Analogue Activity (IC50) WB/IFNg
[4] = read-out: Analogue Activity (IC50) WB/IL-2

Molecule | IC50 [1, 3] [nM] | IC50 [2, 4] [nM] | IC50 ([1]; read-out: WB/IFNg (IC50)) [nM] | IC50 ([2]; read-out: WB/IL-2 (IC50)) [nM] | also measured
CC[C@H](C)[C@@H]1NC(=O)[C@H](CCCCN)NC(=O)[C@@H](NC(=O)[C@H](CCCCN)NC(=O)[C@@H](NC(=O)[C@H](CC(N)=O)NC(=O)[C@@H](NC(=O)[C@@H](NC(=O)[C@@H](NC(=O)CN)C(C)C)[C@@H](C)CC)[C@@H](C)CC)C(C)C)CSSC[C@@H]2NC(=O)[C@H](CCCCN)NC(=O)CNC(=O)[C@H](Cc3ccccc3)NC(=O)[C@H](CCCNC(=N)N)NC(=O)[C@H](CCSC)NC(=O)CNC(=O)[C@H](C)NC(=O)[C@H](CCCCN)NC(=O)[C@H](CCCCN)NC(=O)[C@@H]3CSSC[C@@H](C(=O)N[C@H](C(=O)N4CCC[C@H]4C(=O)N[C@@H](CCCCN)C(=O)O)[C@@H](C)O)NC(=O)[C@H](Cc4c[nH]cn4)NC(=O)[C@H](CSSC[C@H](NC(=O)[C@H](C)NC(=O)[C@H](CCCNC(=N)N)NC(=O)[C@H](CO)NC1=O)C(=O)N[C@@H](CC(C)C)C(=O)N[C@@H](CCC(=O)O)C(=O)N1CCC[C@H]1C(=O)N3)NC(=O)[C@H](CCCCN)NC(=O)CNC(=O)[C@H](CC(N)=O)NC(=O)[C@H](CCSC)NC2=O [Q13A] (H-GVIINVKCKISRACLEPCKKAGMRFGKCMNGKCHCTPK-OH; disulfide 8-28, 14-33, 18-35) | 0.133 | 0.148 |  |  | 
CC[C@H](C)[C@@H]1NC(=O)[C@H](CCCCN)NC(=O)[C@@H](NC(=O)[C@H](CCCCN)NC(=O)[C@@H](NC(=O)[C@H](CC(N)=O)NC(=O)[C@@H](NC(=O)[C@@H](NC(=O)[C@@H](NC(=O)CN)C(C)C)[C@@H](C)CC)[C@@H](C)CC)C(C)C)CSSC[C@@H]2NC(=O)[C@H](CCCCN)NC(=O)CNC(=O)[C@H](Cc3ccccc3)NC(=O)[C@H](CCCNC(=N)N)NC(=O)[C@H](CCSC)NC(=O)CNC(=O)[C@H](CCC(=O)O)NC(=O)[C@H](CCCCN)NC(=O)[C@H](CCCCN)NC(=O)[C@@H]3CSSC[C@@H](C(=O)N[C@H](C(=O)N4CCC[C@H]4C(=O)N[C@@H](CCCCN)C(=O)O)[C@@H](C)O)NC(=O)[C@H](Cc4c[nH]cn4)NC(=O)[C@H](CSSC[C@H](NC(=O)[C@H](CCC(N)=O)NC(=O)[C@H](CCCNC(=N)N)NC(=O)[C@H](CO)NC1=O)C(=O)N[C@@H](CC(C)C)C(=O)N[C@@H](CCC(=O)O)C(=O)N1CCC[C@H]1C(=O)N3)NC(=O)[C@H](CCCCN)NC(=O)CNC(=O)[C@H](CC(N)=O)NC(=O)[C@H](CCSC)NC2=O [A21E] (H-GVIINVKCKISRQCLEPCKKEGMRFGKCMNGKCHCTPK-OH; disulfide 8-28, 14-33, 18-35) | 0.138 | 0.117 |  |  | 
GVIINVKCKISRQCLEPCKKAGMRFGKCANGKCHCTPK [Ala-29 (SEQ ID No: 1424)] |  |  |  |  | IC50 ([1]; read-out: Average IC50 IFNg): 0.292 nM; IC50 ([2]; read-out: Average IC50 IL-2): 0.447 nM
CC[C@H](C)[C@@H]1NC(=O)[C@H](CCCCN)NC(=O)[C@@H](NC(=O)[C@H](CCCCN)NC(=O)[C@@H](NC(=O)[C@H](CC(N)=O)NC(=O)[C@@H](NC(=O)[C@@H](NC(=O)[C@@H](NC(=O)CN)C(C)C)[C@@H](C)CC)[C@@H](C)CC)C(C)C)CSSC[C@@H]2NC(=O)[C@H](CCCCN)NC(=O)CNC(=O)[C@H](Cc3ccccc3)NC(=O)[C@H](CCCNC(=N)N)NC(=O)[C@H](CCC(=O)O)NC(=O)CNC(=O)[C@H](C)NC(=O)[C@H](CCCCN)NC(=O)[C@H](CCCCN)NC(=O)[C@@H]3CSSC[C@@H](C(=O)N[C@H](C(=O)N4CCC[C@H]4C(=O)N[C@@H](CCCCN)C(=O)O)[C@@H](C)O)NC(=O)[C@H](Cc4c[nH]cn4)NC(=O)[C@H](CSSC[C@H](NC(=O)[C@H](CCC(N)=O)NC(=O)[C@H](CCCNC(=N)N)NC(=O)[C@H](CO)NC1=O)C(=O)N[C@@H](CC(C)C)C(=O)N[C@@H](CCC(=O)O)C(=O)N1CCC[C@H]1C(=O)N3)NC(=O)[C@H](CCCCN)NC(=O)CNC(=O)[C@H](CC(N)=O)NC(=O)[C@H](CCSC)NC2=O [M23E] (H-GVIINVKCKISRQCLEPCKKAGERFGKCMNGKCHCTPK-OH; disulfide 8-28, 14-33, 18-35) | 0.666 | 0.606 |  |  | 
CC[C@H](C)[C@@H]1NC(=O)[C@H](CCC(=O)O)NC(=O)[C@@H](NC(=O)[C@H](CCCCN)NC(=O)[C@@H](NC(=O)[C@H](CC(N)=O)NC(=O)[C@@H](NC(=O)[C@@H](NC(=O)[C@@H](NC(=O)CN)C(C)C)[C@@H](C)CC)[C@@H](C)CC)C(C)C)CSSC[C@@H]2NC(=O)[C@H](CCCCN)NC(=O)CNC(=O)[C@H](Cc3ccccc3)NC(=O)[C@H](CCCNC(=N)N)NC(=O)[C@H](CCSC)NC(=O)CNC(=O)[C@H](C)NC(=O)[C@H](CCCCN)NC(=O)[C@H](CCCCN)NC(=O)[C@@H]3CSSC[C@@H](C(=O)N[C@H](C(=O)N4CCC[C@H]4C(=O)N[C@@H](CCCCN)C(=O)O)[C@@H](C)O)NC(=O)[C@H](Cc4c[nH]cn4)NC(=O)[C@H](CSSC[C@H](NC(=O)[C@H](CCC(N)=O)NC(=O)[C@H](CCCNC(=N)N)NC(=O)[C@H](CO)NC1=O)C(=O)N[C@@H](CC(C)C)C(=O)N[C@@H](CCC(=O)O)C(=O)N1CCC[C@H]1C(=O)N3)NC(=O)[C@H](CCCCN)NC(=O)CNC(=O)[C@H](CC(N)=O)NC(=O)[C@H](CCSC)NC2=O [K9E] (H-GVIINVKCEISRQCLEPCKKAGMRFGKCMNGKCHCTPK-OH; disulfide 8-28, 14-33, 18-35) | 0.171 | 0.179 |  |  | 
CC[C@H](C)[C@@H]1NC(=O)[C@H](CCCCN)NC(=O)[C@@H](NC(=O)[C@H](Cc2cccc3ccccc23)NC(=O)[C@@H](NC(=O)[C@H](CC(N)=O)NC(=O)[C@@H](NC(=O)[C@@H](NC(=O)[C@@H](NC(=O)CN)C(C)C)[C@@H](C)CC)[C@@H](C)CC)C(C)C)CSSC[C@@H]2NC(=O)[C@H](CCCCN)NC(=O)CNC(=O)[C@H](Cc3ccccc3)NC(=O)[C@H](CCCNC(=N)N)NC(=O)[C@H](CCSC)NC(=O)CNC(=O)[C@H](C)NC(=O)[C@H](CCCCN)NC(=O)[C@H](CCCCN)NC(=O)[C@@H]3CSSC[C@@H](C(=O)N[C@H](C(=O)N4CCC[C@H]4C(=O)N[C@@H](CCCCN)C(=O)O)[C@@H](C)O)NC(=O)[C@H](Cc4c[nH]cn4)NC(=O)[C@H](CSSC[C@H](NC(=O)[C@H](CCC(N)=O)NC(=O)[C@H](CCCNC(=N)N)NC(=O)[C@H](CO)NC1=O)C(=O)N[C@@H](CC(C)C)C(=O)N[C@@H](CCC(=O)O)C(=O)N1CCC[C@H]1C(=O)N3)NC(=O)[C@H](CCCCN)NC(=O)CNC(=O)[C@H](CC(N)=O)NC(=O)[C@H](CCSC)NC2=O [K7Nal] (H-GVIINV[1Nal]CKISRQCLEPCKKAGMRFGKCMNGKCHCTPK-OH; disulfide 8-28, 14-33, 18-35) | 0.246 | 0.222 |  |  | 
CC[C@H](C)[C@@H]1NC(=O)[C@H](CCCCN)NC(=O)[C@@H](NC(=O)[C@H](CCCCN)NC(=O)[C@@H](NC(=O)[C@H](CC(N)=O)NC(=O)[C@H](CCCNC(=N)N)NC(=O)[C@@H](NC(=O)[C@@H](NC(=O)CN)C(C)C)[C@@H](C)CC)C(C)C)CSSC[C@@H]2NC(=O)[C@H](CCCCN)NC(=O)CNC(=O)[C@H](Cc3ccccc3)NC(=O)[C@H](CCCNC(=N)N)NC(=O)[C@H](CCSC)NC(=O)CNC(=O)[C@H](C)NC(=O)[C@H](CCCCN)NC(=O)[C@H](CCCCN)NC(=O)[C@@H]3CSSC[C@@H](C(=O)N[C@H](C(=O)N4CCC[C@H]4C(=O)N[C@@H](CCCCN)C(=O)O)[C@@H](C)O)NC(=O)[C@H](Cc4c[nH]cn4)NC(=O)[C@H](CSSC[C@H](NC(=O)[C@H](CCC(N)=O)NC(=O)[C@H](CCCNC(=N)N)NC(=O)[C@H](CO)NC1=O)C(=O)N[C@@H](CC(C)C)C(=O)N[C@@H](CCC(=O)O)C(=O)N1CCC[C@H]1C(=O)N3)NC(=O)[C@H](CCCCN)NC(=O)CNC(=O)[C@H](CC(N)=O)NC(=O)[C@H](CCSC)NC2=O [I4R] (H-GVIRNVKCKISRQCLEPCKKAGMRFGKCMNGKCHCTPK-OH; disulfide 8-28, 14-33, 18-35) | 0.175 | 0.168 |  |  | 
GVIINVKCKISRQCLEPCKKAGARFGKCMNGKCHCTPK [Ala-23 (SEQ ID No: 1419)] |  |  |  |  | IC50 ([1]; read-out: Average IC50 IFNg): 0.275 nM; IC50 ([2]; read-out: Average IC50 IL-2): 0.275 nM
des1, V2G, R12A, E16K, K19R, K20D, H34A (GIINVKCKISAQCLKPCRDAGMRFGKCMNGKCACTPK) |  |  | 2.24 | 1.5 | 
GAIINVKCKISRQCLEPCKKAGMRFGKCMNGKCHCTPK [Ala-2 (SEQ ID No: 1401)] |  |  |  |  | IC50 ([1]; read-out: Average IC50 IFNg): 0.103 nM; IC50 ([2]; read-out: Average IC50 IL-2): 0.0884 nM
B1 |  |  | 0.056 | 0.028 | 
B2 |  |  | 0.195 | 0.15 | 
B3 |  |  | 0.119 | 0.109 | 
B4 |  |  | 50.1 | 8.32 | 
